In the supplement of paper PMC10307832:

How the values were obtained:
Assay in all cases: relative viability (nuclei count vs DMSO), 5 days (fraction); higher = more cells survive
Bosutinib + Bortezomib = compound: COc1cc(Nc2c(C#N)cnc3cc(OCCCN4CCN(C)CC4)c(OC)cc23)c(Cl)cc1Cl [Bosutinib] + CC(C)C[C@H](NC(=O)[C@H](Cc1ccccc1)NC(=O)c1cnccn1)B(O)O [Bortezomib] (partner 0.002 µM)
Outline: (§1)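 Lung cancer cell lines, seeded in 1536-well plates, were treated the following day by pin tool with a single drug or with five library-drug doses (not always all listed) in √10 steps on top of a fixed anchor-drug dose. Cells were fixed and nuclei stained in one step after 5 days, and nuclei were counted. Relative viability is the nuclei count for treated wells divided by that for vehicle wells, reported as medians of duplicate plates.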

Bosutinib + Linsitinib = compound: COc1cc(Nc2c(C#N)cnc3cc(OCCCN4CCN(C)CC4)c(OC)cc23)c(Cl)cc1Cl [Bosutinib] + C[C@]1(O)C[C@@H](c2nc(-c3ccc4ccc(-c5ccccc5)nc4c3)c3c(N)nccn32)C1 [Linsitinib] (partner 1 µM)
Outline: as §1

Bosutinib + Tozasertib = compound: COc1cc(Nc2c(C#N)cnc3cc(OCCCN4CCN(C)CC4)c(OC)cc23)c(Cl)cc1Cl [Bosutinib] + Cc1cc(Nc2cc(N3CCN(C)CC3)nc(Sc3ccc(NC(=O)C4CC4)cc3)n2)n[nH]1 [Tozasertib] (partner 0.1 µM)
Outline: as §1

Bosutinib + Phenformin = compound: COc1cc(Nc2c(C#N)cnc3cc(OCCCN4CCN(C)CC4)c(OC)cc23)c(Cl)cc1Cl [Bosutinib] + N=C(N)NC(=N)NCCc1ccccc1 [Phenformin] (partner 250 µM)
Outline: as §1

Bosutinib + Pemetrexed = compound: COc1cc(Nc2c(C#N)cnc3cc(OCCCN4CCN(C)CC4)c(OC)cc23)c(Cl)cc1Cl [Bosutinib] + Nc1nc2[nH]cc(CCc3ccc(C(=O)N[C@@H](CCC(=O)O)C(=O)O)cc3)c2c(=O)[nH]1 [Pemetrexed] (partner 0.2 µM)
Outline: as §1

Row | Cell Line | relative viability (Bosutinib + Bortezomib; first compound 0.01 µM) | relative viability (Bosutinib + Bortezomib; first compound 0.03162 µM) | relative viability (Bosutinib + Bortezomib; first compound 0.1 µM) | relative viability (Bosutinib + Bortezomib; first compound 1 µM) | relative viability (Bosutinib + Linsitinib; first compound 0.01 µM) | relative viability (Bosutinib + Linsitinib; first compound 0.03162 µM) | relative viability (Bosutinib + Linsitinib; first compound 0.1 µM) | relative viability (Bosutinib + Linsitinib; first compound 1 µM) | relative viability (Bosutinib + Tozasertib; first compound 0.01 µM) | relative viability (Bosutinib + Tozasertib; first compound 0.03162 µM) | relative viability (Bosutinib + Tozasertib; first compound 0.1 µM) | relative viability (Bosutinib + Tozasertib; first compound 1 µM) | relative viability (Bosutinib + Phenformin; first compound 0.01 µM) | relative viability (Bosutinib + Phenformin; first compound 0.03162 µM) | relative viability (Bosutinib + Phenformin; first compound 0.1 µM) | relative viability (Bosutinib + Phenformin; first compound 1 µM) | relative viability (Bosutinib + Pemetrexed; first compound 0.01 µM) | relative viability (Bosutinib + Pemetrexed; first compound 0.03162 µM) | relative viability (Bosutinib + Pemetrexed; first compound 0.1 µM) | relative viability (Bosutinib + Pemetrexed; first compound 1 µM)
1 | EMC-BAC-2 | 1.03 | 0.943 | 1.07 | 1.06 | 0.852 | 0.791 | 0.832 | 0.733 | 0.287 | 0.291 | 0.311 | 0.282 | 0.464 | 0.545 | 0.488 | 0.376 | 0.426 | 0.444 | 0.446 | 0.448
2 | NCI-H661 | 1.05 | 0.802 | 0.733 | 0.446 | 0.678 | 0.571 | 0.57 | 0.323 | 0.34 | 0.362 | 0.385 | 0.425 | 0.281 | 0.3 | 0.287 | 0.269 | 0.919 | 0.908 | 0.952 | 0.741
3 | LU99A | 1.16 | 1.17 | 1.33 | 0.938 | 0.587 | 0.576 | 0.584 | 0.678 | 0.275 | 0.276 | 0.291 | 0.311 | 0.92 | 0.781 | 0.832 | 0.478 | 0.2 | 0.208 | 0.193 | 0.182
4 | LK-2 | – | – | – | – | 0.671 | 0.55 | 0.523 | 0.337 | 0.194 | 0.168 | 0.191 | 0.178 | 0.711 | 0.552 | 0.382 | 0.348 | 0.235 | 0.281 | 0.321 | 0.266
5 | NCI-H3122 | 1 | 1.1 | 1.04 | 1.06 | 0.981 | 0.995 | 1.09 | 0.989 | 0.495 | 0.547 | 0.405 | 0.431 | 0.399 | 0.375 | 0.35 | 0.3 | 0.201 | 0.199 | 0.207 | 0.202
6 | NCI-H2347 | 1.12 | 1.3 | 1.09 | 0.923 | 1.08 | 1 | 1.01 | 0.987 | 0.599 | 0.571 | 0.638 | 0.514 | 0.323 | 0.453 | 0.54 | 0.376 | 0.434 | 0.469 | 0.462 | 0.421
7 | NCI-H1563 | 0.885 | 0.775 | 0.784 | 0.659 | 1.24 | 1.2 | 1.06 | 0.792 | – | – | – | – | 0.65 | 0.635 | 0.617 | 0.573 | 0.655 | 0.771 | 0.772 | 0.638
8 | HCC-827 | 1.03 | 1 | 1.03 | 0.928 | 0.987 | 0.967 | 0.914 | 0.843 | 0.406 | 0.442 | 0.436 | 0.166 | 0.427 | 0.407 | 0.366 | 0.19 | 0.248 | 0.282 | 0.273 | 0.231
9 | NCI-H1666 | 0.794 | 0.74 | 0.977 | 0.746 | 0.774 | 0.774 | 0.794 | 0.662 | 0.57 | 0.626 | 0.629 | 0.662 | 0.536 | 0.545 | 0.552 | 0.597 | 0.827 | 0.888 | 0.833 | 0.912
10 | NCI-H358 | – | – | – | – | 0.787 | 0.753 | 0.602 | 0.594 | 0.101 | 0.106 | 0.109 | 0.113 | 0.387 | 0.309 | 0.32 | 0.357 | 0.152 | 0.163 | 0.18 | 0.163
11 | 201T | 1.16 | 1.05 | 1.14 | 1.05 | 1.08 | 0.987 | 1.02 | 0.966 | 0.92 | 0.913 | 0.951 | 0.713 | 0.444 | 0.421 | 0.449 | 0.425 | 0.283 | 0.302 | 0.324 | 0.369
12 | PC-3 [JPC-3] | 0.8 | 0.773 | 0.765 | 0.77 | 0.954 | 0.957 | 0.971 | 0.912 | 0.856 | 0.854 | 0.92 | 0.819 | 0.481 | 0.506 | 0.43 | 0.441 | 1.1 | 1.08 | 1.11 | 0.688
13 | NCI-H2405 | 0.764 | 1.04 | 1.01 | 0.941 | 0.953 | 0.949 | 0.954 | 0.418 | 0.738 | 0.796 | 0.743 | 0.661 | 0.413 | 0.385 | 0.386 | 0.281 | 1.14 | 1.08 | 1.06 | 0.824
14 | LXF-289 | 1 | 1.03 | 1.02 | 0.991 | 0.948 | 0.971 | 0.946 | 1.01 | 0.183 | 0.191 | 0.238 | 0.179 | 0.508 | 0.515 | 0.521 | 0.514 | 0.908 | 1.04 | 0.985 | 0.88
